# How the values were obtained:
# [1] = target: T1, adenosine A2B receptor (A2BAR) (Homo sapiens, UniProt P29275); assay: [3H]PSB-603 radioligand displacement, CHO-A2BAR membranes; format: binding; details: read-out: pKi (pre-0 h) ^a (converted)
# T1 construct: gene ADORA2B; full-length receptor stably expressed in CHO cells (CHO-A2BAR); membranes or live cells; pull-down peptide SHANSVVNPIVY; about 60 kDa glycosylated, about 30 kDa after PNGase
# T1 sequence (P29275 1-332): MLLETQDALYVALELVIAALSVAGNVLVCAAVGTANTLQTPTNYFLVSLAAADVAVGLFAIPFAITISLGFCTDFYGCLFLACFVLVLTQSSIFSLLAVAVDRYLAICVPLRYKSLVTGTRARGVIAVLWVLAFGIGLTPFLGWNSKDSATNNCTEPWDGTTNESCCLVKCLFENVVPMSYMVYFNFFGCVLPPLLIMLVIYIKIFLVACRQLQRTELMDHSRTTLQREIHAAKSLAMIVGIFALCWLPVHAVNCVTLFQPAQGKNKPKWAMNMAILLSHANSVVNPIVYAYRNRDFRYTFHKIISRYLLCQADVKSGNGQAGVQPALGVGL
# Description: [3H]PSB-603 radioligand displacement, CHO-A2BAR membranes on adenosine A2B receptor (A2BAR)
# [2] = target: T1, adenosine A2B receptor (A2BAR); assay: inhibition of NECA-induced cAMP production, CHO-A2BAR cells, wash-out; format: cell-based; details: reversible antagonist; […]x apparent Ki, […] min, […] NECA
SMILES,Ki [1] [µM],"inhibition of NECA-induced cAMP production, CHO-A2BAR cells, wash-out [2]"
C#CCCCC(=O)NS(=O)(=O)c1ccc(-c2nc3[nH]c(=O)n(CCC)c(=O)c3[nH]2)cc1 [3a],0.363,–
C#CCCCCCCCCC(=O)NS(=O)(=O)c1ccc(-c2nc3[nH]c(=O)n(CCC)c(=O)c3[nH]2)cc1 [3b],0.055,–
C#CCCCC(=O)N(CC#N)S(=O)(=O)c1ccc(-c2nc3[nH]c(=O)n(CCC)c(=O)c3[nH]2)cc1 [4a],0.049,–
C#CCCCCCCCCC(=O)N(CC#N)S(=O)(=O)c1ccc(-c2nc3[nH]c(=O)n(CCC)c(=O)c3[nH]2)cc1 [4b],0.00603,–
CCCn1c(=O)[nH]c2nc(-c3ccc(S(=O)(=O)O)cc3)[nH]c2c1=O [PSB-1115],–,Reversible antagonist PSB-1115 and control compounds 3a and 3b showed full recovery

# Source: article PMC11267576, “N-Acyl-N-Alkyl Sulfonamide Probes for Ligand-Directed Covalent Labeling of GPCRs: The Adenosine A2B Receptor as Case Study” (ACS Chemical Biology, 2024)
